Source: patent US20110287468A1, “METHODS AND COMPOSITIONS FOR ASSAYING ENZYMATIC ACTIVITY OF MYELOPEROXIDASE IN BLOOD SAMPLES” (General Atomics, priority 2010, published 2011)

Legend:
Type in all cases: biochemical
[1] = molecular target: T1, MPO (Homo sapiens, UniProt P05164); experiment: Sensitivity of chromogenic substrates: MPO peroxidase activity in buffer solution; settings: 0.24 mM H2O2, 94 ng/mL MPO, 100 mM phosphate buffer pH 6.0-7.0; for Sensitivity: class of ΔOD/min; for ΔOD/min: read at the substrate's wavelength
From the text: Substrate sensitivity was designated as “high” if ΔOD/min was above 0.2, “fair” if ΔOD/min was between 0.05 and 0.2, and “poor” if ΔOD/min was below 0.05.

[2] = molecular target: T1, MPO; experiment: Interference by a specific MPO inhibitor (ABAH) added to the formed dye; settings: 0.2 mM H2O2, 47 ng/mL MPO, 100 mM phosphate buffer pH 6.0-7.0; for Interference by Inhibitor: 0.1 mM ABAH added to the formed dye; for ΔOD/min (after inhibitor): after 0.1 mM ABAH; for ΔOD/min (before inhibitor): before ABAH
Protocol: Interference by a specific MPO inhibitor was evaluated by adding 0.1 mM of 4-aminobenzoic acid hydrazide (ABAH) to the formed dye (i.e. the colored product of the substrate oxidation) in the buffer solution. Before the addition of the inhibitor, the reaction mixture contained the chromogenic substrates, as well as 0.2 mM H2O2 (co-substrate) and 47 ng/mL MPO in 100 mM phosphate buffer (pH 6.0-7.0). Interference by the inhibitor was designated as “low” if the absorption changed by ≦0.01 ΔOD/min and “high” if the absorption changed by >0.01 ΔOD/min. The results are summarized in Tables 2 and 6, and the corresponding kinetic traces are shown on FIG. 1.

[3] = molecular target: T2, MPO (Homo sapiens, UniProt P05164); experiment: MPO peroxidase assay in lithium heparin plasma (Hitachi 917): effects of common plasma substances on assay performance; settings: nearly neutral pH
T2 construct: In a cuvette, 140 μL of Reagent 1 and 25 μL of plasma sample were mixed; from tissue; host or cells: human lithium heparin plasma
T2 sequence (P05164 49-745): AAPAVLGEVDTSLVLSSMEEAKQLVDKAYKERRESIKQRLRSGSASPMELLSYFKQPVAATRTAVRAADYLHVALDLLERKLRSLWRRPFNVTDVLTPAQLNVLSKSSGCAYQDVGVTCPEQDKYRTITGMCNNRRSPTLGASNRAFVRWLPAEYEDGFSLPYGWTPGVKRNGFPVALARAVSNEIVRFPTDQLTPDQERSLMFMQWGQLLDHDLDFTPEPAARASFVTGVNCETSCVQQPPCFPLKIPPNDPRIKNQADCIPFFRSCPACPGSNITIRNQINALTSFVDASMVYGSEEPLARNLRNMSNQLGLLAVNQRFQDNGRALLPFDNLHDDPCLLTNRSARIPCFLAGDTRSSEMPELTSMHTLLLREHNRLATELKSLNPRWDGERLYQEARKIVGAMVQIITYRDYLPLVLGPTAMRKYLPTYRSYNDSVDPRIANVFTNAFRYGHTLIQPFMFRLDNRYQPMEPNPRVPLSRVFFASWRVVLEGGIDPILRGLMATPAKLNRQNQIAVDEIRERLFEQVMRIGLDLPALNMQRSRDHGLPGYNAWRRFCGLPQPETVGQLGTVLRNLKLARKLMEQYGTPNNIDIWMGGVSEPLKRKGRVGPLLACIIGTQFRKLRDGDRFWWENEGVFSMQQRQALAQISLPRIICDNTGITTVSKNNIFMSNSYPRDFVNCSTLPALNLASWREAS
Protocol: To measure MPO peroxidase activity in blood samples, the following liquid stable, ready-to-use assay reagents were used:
The MPO peroxidase assay is formulated for use with non-hemolyzed lithium heparin plasma. No special handling or pretreatment is required. Plasma samples were collected such that testing could be performed as soon as possible after the specimen collection. Although the specimens may be refrigerated at 2-8° C. for 2-5 days, freezing plasma samples may lead to a decrease in MPO peroxidase activity.
In a cuvette, 140 μL of Reagent 1 and 25 μL of plasma sample were mixed and incubated at 37° C. for 1.5 minutes. Absorbance at 505 nm was read at about 2 minutes after the addition of 60 μL Reagent 2 as A1. The reaction was then incubated for approximately 3 more minutes, and the absorbance was read again as A2. The rate of the total peroxidation reaction was calculated as follows: Rate A=(A2−A1)/t, wherein t≈3 min
At about 5 minutes after the addition of Reagent 2, 46 μL of Reagent 3 was added to the reaction mix. Absorbance at 505 nm was read at about 2 minutes after the addition of Reagent 3 as A3. The reaction was then incubated for approximately 3 more minutes and the absorbance was read again as A4. The rate of the non-MPO peroxidation reaction was calculated as follows: Rate B=(A4−A3)/t, wherein t 3 min […]

| Molecule | Sensitivity [1] | ΔOD/min [1] | other results |
| --- | --- | --- | --- |
| N,N-Bis(4-sulfobutyl)-3-methylaniline, disodium salt (TODB)/3-Methyl-2-benzothiazolinone hydrazone (MBTH) [TODB/MBTH] | Fair (“fair” if ΔOD/min was between 0.05 and 0.2) |  | Interference by Inhibitor [2]: high numbers of false positives |
| N-Ethyl-N-(2-hydroxy-3-sulfopropyl)-3-methylaniline, sodium salt, dehydrate/4-Aminoantipyrine (4AA) [TOOS/4AA] |  | 0.12 ΔOD/min | ΔOD/min (after inhibitor) [2]: 0.004 ΔOD/min; ΔOD/min (before inhibitor) [2]: 0.087 ΔOD/min |
| Cc1cc(-c2cc(C)c(N)c(C)c2)cc(C)c1N [TMB, 3,3′,5,5′-Tetramethylbenzidine] | High (“high” if ΔOD/min was above 0.2) | 0.32 ΔOD/min |  |
| CN(C)c1ccc2c(c1)Sc1cc(N(C)C)ccc1N2C(=O)NCC(=O)[O-].[Na+] [DA67, 10-(Carboxymethylaminocarbonyl)-3,7-bis(dimethylamino)-phenothiazine sodium salt] | Poor (“poor” if ΔOD/min was below 0.05) | 0.023 ΔOD/min |  |
| COc1ccccc1O [Guaiacol, 1-Hydroxy-2-methoxybenzene; 2-Methoxyphenol] | High (“high” if ΔOD/min was above 0.2) | 0.37 ΔOD/min |  |
| CC(=O)N1c2ccc(O)cc2Oc2cc(O)ccc21 [Amplex, N-Acetyl-3,7-dihydroxyphenoxazine (Amplex ® UltraRed)] | Poor (“poor” if ΔOD/min was below 0.05) | 0.018 ΔOD/min |  |
| N-Ethyl-N-(2-hydroxy-3-sulfopropyl)-3-methoxylaniline, sodium salt, dehydrate/4AA [ADOS/4AA] | Poor (“poor” if ΔOD/min was below 0.05) | 0.04 ΔOD/min |  |
| N,N-Bis(4-sulfobutyl)-3-methylaniline, disodium salt/4AA [TODB/4AA] |  | 0.07 ΔOD/min | ΔOD/min (after inhibitor) [2]: 0.001 ΔOD/min; ΔOD/min (before inhibitor) [2]: 0.077 ΔOD/min |
| Cc1cc(-c2ccc(NCC(O)CS(=O)(=O)[O-])c(C)c2)ccc1NCC(O)CS(=O)(=O)[O-].[Na+].[Na+] (centres unmarked) [SAT-3, N,N′-Bis(2-hydroxy-3-sulfopropyl)tolidine, disodium salt,] | Poor (“poor” if ΔOD/min was below 0.05) | 0 ΔOD/min |  |
| O=N[O-].[K+] [KNO2, Potassium nitrite] | Poor (“poor” if ΔOD/min was below 0.05) | No signal |  |
| Nc1ccc(-c2ccc(N)c(N)c2)cc1N [DAB, 3,3′-Diaminobenzidine] | Poor (“poor” if ΔOD/min was below 0.05) | 0.0093 ΔOD/min |  |
| N-Ethyl-N-(2-hydroxy-3-sulfopropyl)-3,5-dimethoxyaniline, sodium salt/4AA [DAOS/4AA] | Poor (“poor” if ΔOD/min was below 0.05) | 0.025 ΔOD/min |  |
| N-Ethyl-N-(3-sulfopropyl)-aniline, sodium salt (ALPS)/3-Methyl-2-benzothiazolinone hydrazone (MBTH) [ALPS/MBTH] | Fair (“fair” if ΔOD/min was between 0.05 and 0.2) |  | Interference by Inhibitor [2]: high numbers of false positives |
| CN(C)c1ccc(N(C(=O)NCC(=O)[O-])c2ccc(N(C)C)cc2)cc1.[Na+] [DA64, N-(Carboxymethylaminocarbonyl)-4,4′-bis(dimethylamino)-diphenylamine sodium salt] | Poor (“poor” if ΔOD/min was below 0.05) | 0.0012 ΔOD/min |  |
| CCCCCCCCCCCCCC[N+](C)(C)Cc1ccccc1.[Cl-] [TDBA, Tetradecyldimethylbenzylammonium chloride] | Poor (“poor” if ΔOD/min was below 0.05) | 0 ΔOD/min |  |
| 4-Methylcatechol/4AA [4-MC/4AA] | Poor (“poor” if ΔOD/min was below 0.05) |  | Interference by Inhibitor [2]: high numbers of false positives |
| N-Ethyl-N-(3-sulfopropyl)-aniline, sodium salt/4AA [ALPS/4AA] |  |  | ΔOD/min (after inhibitor) [2]: −0.003 ΔOD/min; ΔOD/min (before inhibitor) [2]: 0.086 ΔOD/min |
| N-Ethyl-N-(3-sulfopropyl)-3-methoxyaniline, sodium salt, monohydrate/4AA [ADPS/4AA] | Poor (“poor” if ΔOD/min was below 0.05) | 0.004 ΔOD/min |  |
| N-Ethyl-N-(3-sulfopropyl)-3-methylaniline, sodium salt/4AA [TOPS/4AA] |  | 0.055 ΔOD/min |  |
| N,N-Bis(4-sulfobutyl)-3,5-dimethylaniline, disodium salt/4AA [MADB/4AA] | Poor (“poor” if ΔOD/min was below 0.05) | 0.04 ΔOD/min |  |
| N-(2-Hydroxy-3-sulfopropyl)-3,5-dimethoxyaniline, sodium salt/4AA [HDAOS/4AA] | Poor (“poor” if ΔOD/min was below 0.05) | 0.03 ΔOD/min |  |
| N-Ethyl-N-(2-hydroxy-3-sulfopropyl)-3,5-dimethylaniline, sodium salt, monohydrate/4AA [MAOS/4AA] | Poor (“poor” if ΔOD/min was below 0.05) | 0.045 ΔOD/min |  |
| COc1cc(-c2ccc(N)c(OC)c2)ccc1N.Cl.Cl [o-dianisidine, o-Dianisidine dihydrochloride] |  |  | Sensitivity ([1]; dihydrochloride): precipitated out of solution; behaviour of the chromogenic substrate in blood samples [3]: precipitated from blood samples |
| N,N-dimethylaniline (DMA)/3-Methyl-2-benzothiazolinone hydrazone (MBTH) [DMA/MBTH] | Poor (“poor” if ΔOD/min was below 0.05) |  |  |
| 3,5-Dichloro-2-hydroxybenzenesulfonate, disodium salt/4AA or 3,5-Dichloro-2-hydroxybenzenesulfonic acid/4AA [DHBS/4AA] |  |  | ΔOD/min (after inhibitor) [2]: 0.002 ΔOD/min; ΔOD/min (before inhibitor) [2]: 0.089 ΔOD/min |
